One data set has as its target T1, opioid receptor mu (Homo sapiens, UniProt P35372).
T1 construct: expressed in transfected cells
In words: GTPγ[35S] binding assay, antagonism of endorphin. It is filed as biochemical. Summed up:
(§1)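 Membranes with […] GTPγ[35S] in Tris pH 7.4 buffer with MgCl2, NaCl, 30 μM GDP; antagonist (10^−10–10^−5 M) preincubated 10 min at 30 °C, then challenged with BW-373U86 1 nM (delta), dynorphin-A 10 nM (kappa) or endorphin 1 μM (mu) for 1 h at 30 °C. Scintillation read-out; Ki derived.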
On the technique in general: GTPγS is a poorly hydrolysed GTP analogue; its binding reports G protein activation.

Data set [1] in a line: Spontaneous food intake model. It is filed as in vivo, Sprague-Dawley rats. As to conditions: rats dosed before onset of dark cycle, compared with vehicle. How it is done:
Male Sprague-Dawley rats may be obtained from Charles River Laboratories, Inc. (Wilmington, Mass.). The rats were individually housed and fed powdered chow. They were maintained on a 12 hour light/dark cycle and received food and water ad libitum. The animals were acclimated to the vivarium for a period of one week before testing is conducted. Rats were transferred to individual test cages 30 hours before the study. The rats were administered test compound or vehicle alone (no compound) 15-30 minutes prior to the onset of the dark cycle. The test compounds were dosed at ranges between 0.1 and 100 mg/kg depending upon the compound. The standard vehicle was 0.5% (w/v) methylcellulose or 30% β-cyclodextrin in water and the standard route of administration was oral. However, different vehicles and routes of administration are used to accommodate various compounds when required. Food intake was monitored using an automated Columbus Instruments system (Columbus, Ohio). Individual rat food intake was recorded continuously at 10-minute intervals, starting at the time of dosing, for a period of at least 12 hours. Compound efficacy was determined by comparing the food intake pattern of compound-treated rats to vehicle.

For the next data set, the target named is T2, opioid receptor delta (Homo sapiens, UniProt P41143).
T2 construct: expressed in transfected cells
T2 sequence (P41143 whole entry): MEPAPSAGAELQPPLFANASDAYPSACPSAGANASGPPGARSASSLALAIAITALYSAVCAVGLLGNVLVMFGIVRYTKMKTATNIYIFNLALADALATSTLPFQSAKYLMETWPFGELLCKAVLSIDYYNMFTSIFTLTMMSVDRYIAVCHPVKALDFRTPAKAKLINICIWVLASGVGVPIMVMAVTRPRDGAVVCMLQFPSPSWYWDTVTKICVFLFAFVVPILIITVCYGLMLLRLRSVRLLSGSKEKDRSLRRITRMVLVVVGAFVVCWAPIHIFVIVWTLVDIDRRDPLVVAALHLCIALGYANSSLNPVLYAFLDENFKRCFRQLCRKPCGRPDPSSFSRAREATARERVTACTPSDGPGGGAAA
Put plainly: GTPγ[35S] binding assay, antagonism of BW-373U86. It is filed as biochemical. Summed up: as §1

A further data set deals with T3, opioid receptor kappa (Homo sapiens, UniProt P41145).
T3 construct: expressed in transfected cells
T3 sequence (P41145 whole entry): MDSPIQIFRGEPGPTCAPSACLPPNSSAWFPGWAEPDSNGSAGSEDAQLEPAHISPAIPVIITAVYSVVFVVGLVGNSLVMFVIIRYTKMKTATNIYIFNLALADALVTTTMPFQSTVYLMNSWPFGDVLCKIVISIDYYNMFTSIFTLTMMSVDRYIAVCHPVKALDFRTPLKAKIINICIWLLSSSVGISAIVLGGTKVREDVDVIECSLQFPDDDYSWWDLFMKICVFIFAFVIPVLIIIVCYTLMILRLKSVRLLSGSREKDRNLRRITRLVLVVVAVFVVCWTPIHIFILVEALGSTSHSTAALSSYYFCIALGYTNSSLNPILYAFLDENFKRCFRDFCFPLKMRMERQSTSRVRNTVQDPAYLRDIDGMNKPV
Put plainly: GTPγ[35S] binding assay, antagonism of dynorphin-A. It is filed as biochemical. The method, boiled down:
as §1

The nature of data set [2]: Fasted induced refeeding model. It is filed as in vivo, Sprague-Dawley rats. The note with it: rats after overnight fast, compared with vehicle. How it is done: The following screen is used to evaluate the efficacy of test compounds for inhibiting food intake in Sprague-Dawley rats after an overnight fast.
Male Sprague-Dawley rats were obtained from Charles River Laboratories, Inc. (Wilmington, Mass.). The rats are individually housed and fed powdered chow. They are maintained on a 12 hour light/dark cycle and received food and water ad libitum. The animals are acclimated to the vivarium for a period of one week before testing is conducted. Testing is completed during the light portion of the cycle.
To conduct the food intake efficacy screen, rats are transferred to individual test cages without food the afternoon prior to testing, and the rats are fasted overnight. After the overnight fast, rats are dosed the following morning with vehicle or test compounds. A known antagonist is dosed (3 mg/kg) as a positive control, and a control group receives vehicle alone (no compound). […] Individual rat food intake is recorded continuously at 10-minute intervals for a period of two hours. When required, food intake is recorded manually using an electronic scale; food is weighed every 30 minutes after food is provided up to four hours after food is provided. Compound efficacy is determined by comparing the food intake pattern of compound-treated rats to vehicle and the standard positive control.

The conditions of data set [3]: rat, in vivo; cited from earlier work.
A further data set concerns the target delta opioid receptor (Homo sapiens, UniProt P41143). The note with it: cited from earlier work.
The target in a further data set is mu opioid receptor (Homo sapiens, UniProt P35372). The note with it: mu opioid receptor subtype; cited from earlier work.
Sequence of mu opioid receptor (P35372 whole entry): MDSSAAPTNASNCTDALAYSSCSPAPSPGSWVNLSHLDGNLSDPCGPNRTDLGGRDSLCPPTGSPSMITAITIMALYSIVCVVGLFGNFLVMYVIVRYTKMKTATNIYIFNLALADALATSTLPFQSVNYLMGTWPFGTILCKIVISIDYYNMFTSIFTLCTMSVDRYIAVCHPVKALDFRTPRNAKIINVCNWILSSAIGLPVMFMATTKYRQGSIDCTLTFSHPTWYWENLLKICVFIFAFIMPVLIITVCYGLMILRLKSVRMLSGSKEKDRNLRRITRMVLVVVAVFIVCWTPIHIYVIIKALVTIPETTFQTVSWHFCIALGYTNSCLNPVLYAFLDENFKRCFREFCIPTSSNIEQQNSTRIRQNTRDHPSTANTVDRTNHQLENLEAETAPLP
Another data set has as its target kappa opioid receptor (Homo sapiens, UniProt P41145). As to conditions: kappa opioid receptor subtype; cited from earlier work.
The conditions of data set [4]: humans; cited from earlier work.
The subject of another data set is TNF-α production. The note with it: rats; cited from earlier work.
The conditions of data set [5]: bile duct ligated rats; cited from earlier work.
For data set [6] the following is noted: cited from earlier work.
The conditions of data set [7]: rodents; cited from earlier work.
Setting [8] is: average Ki, antagonism of endorphin (1 μM) stimulated GTPγ[35S] binding, mu opioid receptor membranes, read-out: Mu functional (GTPγ[35S] binding Ki).
[9] abbreviates: average Ki, antagonism of BW-373U86 (1 nM) stimulated GTPγ[35S] binding, delta opioid receptor membranes, read-out: Delta functional (GTPγ[35S] binding Ki).
Setting [10] is: average Ki, antagonism of dynorphin-A (10 nM) stimulated GTPγ[35S] binding, kappa opioid receptor membranes, read-out: Kappa functional (GTPγ[35S] binding Ki).
The mark [11] stands for this setting: read-out: Mu functional (GTPγ[35S] binding Ki).
[12] abbreviates: read-out: Delta functional (GTPγ[35S] binding Ki).
Where [13] appears, read: read-out: Kappa functional (GTPγ[35S] binding Ki).

For orientation: melting point means the temperature, or range, at which the solid turns liquid.

Structures are written as SMILES. Counter-ions that a name gives are not always drawn. Like-named read-outs stand apart in the source and are kept apart here.

T1 sequence (P35372 whole entry): as above
Sequence of kappa opioid receptor (P41145 whole entry): as the sequence (P41145 whole entry) above
Sequence of delta opioid receptor (P41143 whole entry): as the sequence (P41143 whole entry) above

Regarding `Cc1cc(C(N)=O)c(F)cc1-c1ccc(CNCCC(C)C)c(F)c1.Cl.O` (hydrate or solvate), the melting point was 229 °C.
Regarding `CC(C)CCNCc1ccc(-c2cc(C(N)=O)ccc2F)c(F)c1.Cl` [1A-07], the Ki turned out to be 14.5 nM on opioid receptor mu (setting [8]), 9.49 nM on opioid receptor delta (setting [9]) and 14.3 nM on opioid receptor kappa (setting [10]). Moreover, the food intake result in data set [1] is “significant reduction in food intake”.
In the same order, the values of `Cc1cc(C(N)=O)ccc1-c1ccc(CNCCC(C)C)cc1F.Cl` [1B-03] are 8.96 nM, 5.09 nM, 3.32 nM and “significant reduction in food intake”.
`Cc1cc(C(N)=O)ccc1-c1ccc(CNC2Cc3ccccc3C2)cc1.Cl` [4B-04]: the results for the Ki at opioid receptor mu (setting [8]), at opioid receptor delta (setting [9]) and on opioid receptor kappa (setting [10]) were 0.0925 nM, 0.185 nM and 0.406 nM, respectively. For the same compound, in data set [1], the food intake result is on record as “significant reduction in food intake”.
In the same order, the values of `Cc1cc(C(N)=O)ccc1-c1ccc(CNCCCc2ccccc2)cc1.Cl` [4B-08] are 2.84 nM, 0.838 nM, 2.19 nM and “significant reduction in food intake”.
Turning to `Cc1cc(C(N)=O)ccc1-c1cc(F)c(CNCCC(C)C)c(F)c1.Cl` [E1-01, 3′,5′Difluoro-2-methyl-4′-[(3-methyl-butylamino)-methyl]-biphenyl-4-carboxylic acid amide hydrochloride salt], the Ki on opioid receptor mu (setting [11]) worked out at 2.1 nM; at opioid receptor delta (setting [12]), 1.7 nM; on opioid receptor kappa (setting [13]) it was 2.64 nM. Besides, in data set [1], the food intake entry is reported as “significant reduction in food intake”.
As to `Cc1cc(CNCCC(C)C)ccc1-c1ccc(C(N)=O)cc1C.Cl` [E2-01, 2,2′-Dimethyl-4′-[(3-methyl-butylamino)-methyl]-biphenyl-4-carboxylic acid amide hydrochloride salt], the Ki at opioid receptor mu (setting [11]) worked out at 0.886 nM; on opioid receptor delta (setting [12]) it was 1.38 nM; on opioid receptor kappa (setting [13]), 2.06 nM. The food intake entry in data set [1] was “significant reduction in food intake”.
In the same order, the values of `Cc1cc(C(N)=O)ccc1-c1ccc(CNCCC(C)C)c(Cl)c1` [E3-01, hydrochloride salt] are 2.82 nM, 1.53 nM, 1.73 nM and “significant reduction in food intake”.
With `Cc1cc(C(N)=O)ccc1-c1ccc(CNCCC(C)C)cc1` [E4-01, 2-Methyl-4′-[(3-methyl-butylamino)-methyl]-biphenyl-4-carboxylic acid amide], the Ki on opioid receptor mu (setting [8]) came out at 6.5 nM; on opioid receptor delta (setting [9]), 20 nM; at opioid receptor kappa (setting [10]), 2.4 nM. Moreover, in data set [1], the food intake entry is “significant reduction in food intake”.
Regarding `CC(C)CCNCc1ccc(-c2cccc(-c3nnc[nH]3)c2)c(F)c1.Cl` [E7-02, [2-Fluoro-3′-(4H-[1,2,4]-triazol-3-yl)-biphenyl-4-ylmethyl]-(3-methyl-butyl)-amine hydrochloride salt], the results for the Ki at opioid receptor mu (read-out: Mu functional Ki (GTPγ[35S] binding)), at opioid receptor delta (read-out: Delta functional Ki (GTPγ[35S] binding)) and at opioid receptor kappa (read-out: Kappa functional Ki (GTPγ[35S] binding)) were 3.3 nM, 1400 nM and 5.9 nM, respectively. The food intake entry in [1] and in data set [2] was “significant reduction in food intake” in each case.
As to `C[C@H]1CN(CC[C@H](O)C2CCCCC2)CC[C@@]1(C)c1cccc(O)c1` [LY255582], the anorectic effects result in data set [3] was “robust anorectic effects”.
For the compound `C[C@H]1CN(CCC(O)C2CCCCC2)CC[C@@]1(C)c1cccc(O)c1` (stereo partly drawn) [LY515300, 1-(3-cyclohexyl-3-hydroxypropyl)-3(R),4(R)-dimethyl-4-(3-hydroxyphenyl)piperidine], the binding affinity entry at delta opioid receptor is listed as “lower affinity”; on mu opioid receptor, “subnanomolar”; on kappa opioid receptor it was “subnanomolar”.
With `O=C1CC[C@@]2(O)[C@H]3Cc4ccc(O)c5c4[C@@]2(CCN3CC2CC2)[C@H]1O5` [Naltrexone], the weight loss efficacy entry in data set [4] and in [7] was “poor weight loss efficacy” throughout. Moreover, the “LPS-stimulated TNF-α production” value in the data set on TNF-α production was “inhibit LPS-stimulated TNF-α production”. Besides, the liver fibrosis entry in data set [5] is reported as “attenuate liver fibrosis”. Further, the insulin sensitivity result in data set [6] (Polycystic Ovarian Syndrome (PCOS) women with hyperinsulinemia) and in [6] (post-menopausal women with hyperinsulinemia) was “improve insulin sensitivity” each time.

(Values after patent US7615651B2, “Diaryl, dipyridinyl and aryl-pyridinyl derivatives and uses thereof” (Pfizer Inc., priority 2006, dated 2009).)
